Where “and” joins values, the source holds several entries; their conditions need not be identical. Equal entries are not always repeated. Where two headings read alike, the source gives them in different places.
Columns and labels:
[1] = biological target: T1, CDK2–cyclin A (Homo sapiens, UniProt P24941); test: Lanthascreen kinase binding assay, CDK2; conditions: for Lanthascreen signal, sheet CDK2: raw replicates, experiment r36-r46
T1 construct: purchased Thermo Fisher
Experimental: (§1) Lanthascreen experiments were performed using commercially available reagents (Thermo Fisher) and according to the manufacturer’s instructions.

[2] = biological target: T2, CDK9–cyclin T (Homo sapiens, UniProt P50750); test: Lanthascreen kinase binding assay, CDK9; conditions: for Lanthascreen TR-FRET signal (raw ratio), sheet CDK9: third titration set (r25), duplicates
T2 construct: purchased Thermo Fisher
T2 sequence (P50750 whole entry): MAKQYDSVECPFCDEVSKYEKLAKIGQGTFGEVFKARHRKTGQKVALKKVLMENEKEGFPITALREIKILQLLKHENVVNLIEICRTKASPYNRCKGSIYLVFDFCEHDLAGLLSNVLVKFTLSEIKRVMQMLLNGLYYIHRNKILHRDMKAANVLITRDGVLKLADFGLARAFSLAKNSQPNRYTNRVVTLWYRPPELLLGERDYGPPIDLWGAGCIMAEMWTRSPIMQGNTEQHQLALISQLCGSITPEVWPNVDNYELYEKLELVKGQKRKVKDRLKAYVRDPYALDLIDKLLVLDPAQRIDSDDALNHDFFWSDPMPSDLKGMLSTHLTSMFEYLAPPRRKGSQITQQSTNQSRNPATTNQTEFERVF
T2 sequence (O60563 whole entry partner): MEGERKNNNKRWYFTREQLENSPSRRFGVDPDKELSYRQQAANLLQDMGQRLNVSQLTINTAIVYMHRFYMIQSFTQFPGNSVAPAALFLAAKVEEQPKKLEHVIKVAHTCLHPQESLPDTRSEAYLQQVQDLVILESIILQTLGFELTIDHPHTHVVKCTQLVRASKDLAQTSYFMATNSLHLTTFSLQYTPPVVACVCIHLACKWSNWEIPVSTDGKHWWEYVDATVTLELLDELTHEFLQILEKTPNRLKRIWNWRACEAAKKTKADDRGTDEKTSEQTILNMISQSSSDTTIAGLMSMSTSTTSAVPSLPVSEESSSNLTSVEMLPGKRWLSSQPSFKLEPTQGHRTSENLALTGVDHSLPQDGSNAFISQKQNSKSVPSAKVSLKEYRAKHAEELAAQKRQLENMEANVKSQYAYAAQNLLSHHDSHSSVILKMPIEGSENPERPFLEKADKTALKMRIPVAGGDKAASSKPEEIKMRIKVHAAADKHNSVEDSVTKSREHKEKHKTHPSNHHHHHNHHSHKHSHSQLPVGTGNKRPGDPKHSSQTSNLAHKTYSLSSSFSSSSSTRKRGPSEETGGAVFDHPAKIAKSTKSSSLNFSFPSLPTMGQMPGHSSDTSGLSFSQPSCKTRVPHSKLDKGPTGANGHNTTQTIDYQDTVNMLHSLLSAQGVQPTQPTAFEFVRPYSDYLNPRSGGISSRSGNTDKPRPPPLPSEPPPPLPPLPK
Experimental: as §1

[3] = tested on: cyclin K–eGFP degradation reporter; test: Cyclin K reporter stability analysis (dual-color cyclin K–eGFP reporter); format: cell-based, human; conditions: Supplementary Table 2; HEK293T cycK-eGFP reporter, 5 h; read-out: Cellular assays DC50
Summary of the method: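 Values reflect cyclin K–eGFP levels after a 5 h exposure, expressed as the green-to-red fluorescence ratio and scaled to three vehicle-treated controls. Measurements came from HEK293T–Cas9 reporter cells by flow cytometry.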

[4] = tested on: HEK293T cells; test: Drug sensitivity assay (CellTiter-Glo viability) with or without MLN4924 pretreatment; format: cell-based, human; conditions: Supplementary Table 2
Summary of the method: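 Luminescent ATP read-out (CellTiter-Glo) after 3 days of drug exposure, normalised to DMSO controls. Cells were HEK293T–Cas9, pretreated with 100 nM MLN4924 or DMSO for 2 h before drug dispensing.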

[5] = biological target: T3, CDK12–cyclin K and DDB1 (Homo sapiens, UniProt Q16531+Q9NYV4, K965R); test: TR-FRET ternary complex formation assay (compound titration); format: binding
T3 construct: His6–CDK12 (a.a. 713–1,052); full-length or beta-propeller B domain deletion (ΔBPB: a.a. 396–705 deleted) constructs of His6–DDB1ΔBPB, StrepII–Avi–DDB1, or His6–Spy–DDB1; made in house; host or cells: Trichoplusia ni High Five insect cells (baculovirus)
T3 sequence (Q9NYV4 713-1052 K965R): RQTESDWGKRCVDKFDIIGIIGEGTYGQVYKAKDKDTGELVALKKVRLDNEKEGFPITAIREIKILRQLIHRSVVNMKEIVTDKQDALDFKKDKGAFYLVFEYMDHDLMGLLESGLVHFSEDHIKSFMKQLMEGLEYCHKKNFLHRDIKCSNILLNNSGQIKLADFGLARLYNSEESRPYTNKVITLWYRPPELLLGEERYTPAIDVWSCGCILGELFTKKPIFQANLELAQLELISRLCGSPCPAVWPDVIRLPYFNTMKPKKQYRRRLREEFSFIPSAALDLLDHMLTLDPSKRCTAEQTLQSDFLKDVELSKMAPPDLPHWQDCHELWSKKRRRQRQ
T3 sequence (O75909 1-267 partner): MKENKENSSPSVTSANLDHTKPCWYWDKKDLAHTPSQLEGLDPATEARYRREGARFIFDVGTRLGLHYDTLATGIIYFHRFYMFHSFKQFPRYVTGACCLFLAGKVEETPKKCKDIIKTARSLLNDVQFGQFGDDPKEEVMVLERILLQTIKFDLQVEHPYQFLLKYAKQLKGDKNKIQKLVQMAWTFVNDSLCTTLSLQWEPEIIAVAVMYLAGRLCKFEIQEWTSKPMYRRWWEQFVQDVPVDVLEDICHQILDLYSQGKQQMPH
T3 sequence (Q16531 whole entry): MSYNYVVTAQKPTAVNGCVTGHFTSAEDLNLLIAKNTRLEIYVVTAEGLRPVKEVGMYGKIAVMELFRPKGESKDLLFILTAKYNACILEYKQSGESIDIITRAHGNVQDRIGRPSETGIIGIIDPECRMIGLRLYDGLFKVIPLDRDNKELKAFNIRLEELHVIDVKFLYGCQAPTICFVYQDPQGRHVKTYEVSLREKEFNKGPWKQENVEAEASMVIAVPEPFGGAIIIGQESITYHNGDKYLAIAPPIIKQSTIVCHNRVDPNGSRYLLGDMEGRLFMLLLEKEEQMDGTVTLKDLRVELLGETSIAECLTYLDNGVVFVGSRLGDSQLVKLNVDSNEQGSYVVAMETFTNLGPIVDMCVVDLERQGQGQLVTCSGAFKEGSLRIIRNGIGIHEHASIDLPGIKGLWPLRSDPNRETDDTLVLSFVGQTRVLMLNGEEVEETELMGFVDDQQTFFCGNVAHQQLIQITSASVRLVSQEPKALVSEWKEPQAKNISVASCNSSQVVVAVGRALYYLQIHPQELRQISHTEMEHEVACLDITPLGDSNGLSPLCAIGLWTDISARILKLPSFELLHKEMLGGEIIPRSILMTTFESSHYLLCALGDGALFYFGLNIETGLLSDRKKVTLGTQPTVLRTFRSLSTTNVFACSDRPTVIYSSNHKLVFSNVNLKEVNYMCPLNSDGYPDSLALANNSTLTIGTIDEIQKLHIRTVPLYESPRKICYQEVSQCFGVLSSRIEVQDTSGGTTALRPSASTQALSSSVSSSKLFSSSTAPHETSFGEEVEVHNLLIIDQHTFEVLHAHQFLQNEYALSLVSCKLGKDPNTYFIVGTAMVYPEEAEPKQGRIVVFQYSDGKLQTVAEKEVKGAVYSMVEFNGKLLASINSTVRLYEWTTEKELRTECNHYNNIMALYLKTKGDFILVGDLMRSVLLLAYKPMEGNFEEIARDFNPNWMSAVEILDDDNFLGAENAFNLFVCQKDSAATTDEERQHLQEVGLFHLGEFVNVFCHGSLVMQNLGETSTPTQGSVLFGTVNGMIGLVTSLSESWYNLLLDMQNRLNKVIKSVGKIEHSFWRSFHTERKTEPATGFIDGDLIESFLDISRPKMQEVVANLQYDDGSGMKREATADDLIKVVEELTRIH
Summary of the method: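 TR-FRET ratio 520/490 nm; 70 μs delay before read to suppress background.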

[6] = biological target: CDK12–cyclin K (Homo sapiens, UniProt Q9NYV4); test: Lanthascreen kinase binding assay, CDK12; conditions: for Lanthascreen raw signal, sheet CDK12: series r37, duplicates
Sequence of CDK12–cyclin K (Q9NYV4 713-1052): as the sequence (Q9NYV4 713-1052 K965R) above, with R253K counted along it
Sequence of CDK12–cyclin K (O75909 1-267 partner limits assumed): as the sequence (O75909 1-267 partner) above
Experimental: as §1

With `CC[C@H](CO)Nc1nc(NCc2ccc(-c3ccccn3)cc2)c2ncn(-c3cnn(C)c3)c2n1` [DS20] as the molecule, how does the “Lanthascreen signal, sheet CDK2” value ([1]; Compound 0.038147 nM) read?
Its value is 0.01372 and 0.01355.

What about the “Lanthascreen signal, sheet CDK2” value ([1]; Compound 0.152588 nM) of the same molecule?
The value was 0.01402 and 0.01425.

And the “Lanthascreen signal, sheet CDK2” value ([1]; Compound 0.610352 nM)?
The value was 0.0137 and 0.01464.

And the “Lanthascreen signal, sheet CDK2” value ([1]; Compound 9.76563 nM)?
Its value is 0.01391 and 0.01419.

And the “Lanthascreen signal, sheet CDK2” value ([1]; Compound 39.0625 nM)?
The value was 0.01392 and 0.01397.

What about the “Lanthascreen signal, sheet CDK2” value ([1]; Compound 156.25 nM) of the same molecule?
Its value is 0.01435 and 0.01404.

What about the “Lanthascreen signal, sheet CDK2” value ([1]; Compound 625 nM) of the same molecule?
Its value is 0.01359 and 0.01432.

What about the “Lanthascreen signal, sheet CDK2” value ([1]; Compound 2500 nM) of the same molecule?
Its value is 0.01402 and 0.01364.

What about the “Lanthascreen signal, sheet CDK2” value ([1]; Compound 10000 nM) of the same molecule?
The value was 0.01203 and 0.01167.

What about the IC50 ([1]; Lanthascreen, average, Extended Data Fig. 8, read-out: CDK2 IC50) of the same molecule?
Its IC50 is over 10000 nM.

What about the IC50 ([1]; Supplementary Table 2, read-out: Lanthascreen IC50 [nM] CDK2) of the same molecule?
The IC50 was over 10000 nM.

What about the IC50 ([2]; Supplementary Table 2, read-out: Lanthascreen IC50 [nM] CDK9) of the same molecule?
The IC50 was 3200 nM.

And the “Lanthascreen TR-FRET signal (raw ratio), sheet CDK9” value ([2]; compound 0.038147 nM)?
Its value is 0.01966 and 0.01664.

And the “Lanthascreen TR-FRET signal (raw ratio), sheet CDK9” value ([2]; compound 0.152588 nM)?
The value was 0.02094 and 0.01978.

And the “Lanthascreen TR-FRET signal (raw ratio), sheet CDK9” value ([2]; compound 0.610352 nM)?
Its value is 0.02169 and 0.01748.

And the “Lanthascreen TR-FRET signal (raw ratio), sheet CDK9” value ([2]; compound 9.76563 nM)?
Its value is 0.02175 and 0.01903.

And the “Lanthascreen TR-FRET signal (raw ratio), sheet CDK9” value ([2]; compound 39.0625 nM)?
Its value is 0.02145 and 0.01745.

And the “Lanthascreen TR-FRET signal (raw ratio), sheet CDK9” value ([2]; compound 156.25 nM)?
The value was 0.02109 and 0.01723.

What about the “Lanthascreen TR-FRET signal (raw ratio), sheet CDK9” value ([2]; compound 625 nM) of the same molecule?
The value was 0.02056 and 0.01753.

What about the “Lanthascreen TR-FRET signal (raw ratio), sheet CDK9” value ([2]; compound 2500 nM) of the same molecule?
Its value is 0.01726 and 0.0135.

What about the “Lanthascreen TR-FRET signal (raw ratio), sheet CDK9” value ([2]; compound 10000 nM) of the same molecule?
Its value is 0.01114 and 0.009536.

And the DC50 [3]?
The DC50 was over 10 µM.

And the EC50 ([4]; Homo sapiens, HEK-293T, HEK293T viability, 72 h, compound alone, read-out: Cellular assays EC50)?
The EC50 was over 10 µM.

And the Toxicity rescue ([4]; MLN4924-mediated cytotoxicity rescue, 10 µM used where n.d.)?
Its Toxicity rescue is 0%.

And the “TR-FRET signal at compound concentration 4.68 nM” value ([5]; compound concentration 4.68 nM, raw replicate titration data)?
The value was 0.1341 and 0.1393.

And the “TR-FRET signal at compound concentration 21.6 nM” value ([5]; compound concentration 21.6 nM, raw replicate titration data)?
Its value is 0.1505 and 0.1671.

What about the “TR-FRET signal at compound concentration 36 nM” value ([5]; compound concentration 36 nM, raw replicate titration data) of the same molecule?
Its value is 0.1763 and 0.1953.

And the “TR-FRET signal at compound concentration 79.2001 nM” value ([5]; compound concentration 79.2001 nM, raw replicate titration data)?
Its value is 0.2244 and 0.2373.

And the “TR-FRET signal at compound concentration 158.4 nM” value ([5]; compound concentration 158.4 nM, raw replicate titration data)?
The value was 0.3075 and 0.3209.

What about the “TR-FRET signal at compound concentration 309.6 nM” value ([5]; compound concentration 309.6 nM, raw replicate titration data) of the same molecule?
Its value is 0.4615 and 0.4691.

What about the “TR-FRET signal at compound concentration 626.401 nM” value ([5]; compound concentration 626.401 nM, raw replicate titration data) of the same molecule?
The value was 0.7336 and 0.7393.

And the “TR-FRET signal at compound concentration 1252.8 nM” value ([5]; compound concentration 1252.8 nM, raw replicate titration data)?
The value was 1.129 and 1.14.

What about the “TR-FRET signal at compound concentration 2448 nM” value ([5]; compound concentration 2448 nM, raw replicate titration data) of the same molecule?
The value was 1.631 and 1.657.

And the “TR-FRET signal at compound concentration 9936.01 nM” value ([5]; compound concentration 9936.01 nM, raw replicate titration data)?
Its value is 2.437 and 2.497.

And the “TR-FRET signal at compound concentration 20016 nM” value ([5]; compound concentration 20016 nM, raw replicate titration data)?
Its value is 2.527 and 2.638.

What about the “DDB1–CDK12 complex formation, result in words” value ([5]; in vitro TR-FRET) of the same molecule?
The value was “poorer glues”.

And the EC50 ([5]; sheet MOESM7, read-out: log TR-FRET EC50 (converted))?
Its EC50 is 1.84 µM.

And the IC50 ([6]; Lanthascreen, average, Extended Data Fig. 8, read-out: CDK12 IC50)?
The IC50 was over 10000 nM.

What about the IC50 ([6]; Supplementary Table 2, read-out: Lanthascreen IC50 [nM] CDK12) of the same molecule?
The IC50 was over 10000 nM.

And the “Lanthascreen raw signal, sheet CDK12” value ([6]; compound 0.038147 nM)?
The value was 0.01392 and 0.01331.

And the “Lanthascreen raw signal, sheet CDK12” value ([6]; compound 0.152588 nM)?
The value was 0.01475 and 0.01452.

And the “Lanthascreen raw signal, sheet CDK12” value ([6]; compound 0.610352 nM)?
Its value is 0.01495.

What about the “Lanthascreen raw signal, sheet CDK12” value ([6]; compound 9.76563 nM) of the same molecule?
Its value is 0.01647 and 0.01469.

And the “Lanthascreen raw signal, sheet CDK12” value ([6]; compound 39.0625 nM)?
The value was 0.0142 and 0.01474.

And the “Lanthascreen raw signal, sheet CDK12” value ([6]; compound 156.25 nM)?
The value was 0.01388 and 0.01469.

And the “Lanthascreen raw signal, sheet CDK12” value ([6]; compound 625 nM)?
The value was 0.01464 and 0.015.

And the “Lanthascreen raw signal, sheet CDK12” value ([6]; compound 2500 nM)?
The value was 0.01337 and 0.01367.

And the “Lanthascreen raw signal, sheet CDK12” value ([6]; compound 10000 nM)?
Its value is 0.01057 and 0.01115.
